Columns and labels:
Format in all cases: functional
Escherichia coli [1] = experiment: Antimicrobial activity against CTX-M ESBL producing Escherichia coli isolated from ICU patient blood assessed as resistant isolates by broth microdilution method in presence of beta-lactamase inhibitor Tazobactam
Klebsiella pneumoniae [2] = experiment: Antimicrobial activity against ESBL producing Klebsiella pneumoniae isolated from ICU patient respiratory tract assessed as resistant isolates by broth microdilution method in presence of beta-lactamase inhibitor Tazobactam
Enterococcus sp. [3] = experiment: Antimicrobial activity against vancomycin-resistant Enterococcus sp. isolated from ICU patient urine assessed as resistant isolates by broth microdilution method in presence of beta-lactamase inhibitor Tazobactam
Staphylococcus aureus [4] = experiment: Antimicrobial activity against methicillin-susceptible Staphylococcus aureus isolated from ICU patient wound assessed as resistant isolates by broth microdilution method in presence of beta-lactamase inhibitor Tazobactam
Pseudomonas aeruginosa [5] = experiment: Antimicrobial activity against carbapenem-resistant Pseudomonas aeruginosa isolated from ICU patient blood assessed as resistant isolates by broth microdilution method in presence of beta-lactamase inhibitor Tazobactam
Escherichia coli [6] = experiment: Antimicrobial activity against CTX-M ESBL producing Escherichia coli assessed as resistant isolates by broth microdilution method in presence of beta-lactamase inhibitor Tazobactam
Enterobacter cloacae [7] = experiment: Antimicrobial activity against carbapenem-resistant Enterobacter cloacae assessed as resistant isolates by broth microdilution method in presence of beta-lactamase inhibitor Tazobactam
Staphylococcus aureus [8] = experiment: Antimicrobial activity against methicillin-resistant Staphylococcus aureus assessed as resistant isolates by broth microdilution method in presence of beta-lactamase inhibitor Tazobactam
Enterococcus sp. [9] = experiment: Antimicrobial activity against vancomycin-resistant Enterococcus sp. assessed as resistant isolates by broth microdilution method in presence of beta-lactamase inhibitor Tazobactam
Enterococcus sp. [10] = experiment: Antimicrobial activity against vancomycin-resistant Enterococcus sp. isolated from ICU patient respiratory tract assessed as resistant isolates by broth microdilution method
Staphylococcus aureus [11] = experiment: Antimicrobial activity against methicillin-resistant Staphylococcus aureus isolated from ICU patient urine assessed as resistant isolates by broth microdilution method in presence of beta-lactamase inhibitor Tazobactam
Haemophilus influenzae [12] = experiment: Antimicrobial activity against Haemophilus influenzae isolated from ICU patient blood assessed as resistant isolates by broth microdilution method in presence of beta-lactamase inhibitor Tazobactam
Haemophilus influenzae [13] = experiment: Antimicrobial activity against Haemophilus influenzae isolated from ICU patient wound assessed as resistant isolates by broth microdilution method in presence of beta-lactamase inhibitor Tazobactam
Enterobacter cloacae [14] = experiment: Antimicrobial activity against carbapenem-resistant Enterobacter cloacae isolated from ICU patient blood assessed as resistant isolates by broth microdilution method in presence of beta-lactamase inhibitor Tazobactam
Enterobacter cloacae [15] = experiment: Antimicrobial activity against carbapenem-resistant Enterobacter cloacae isolated from ICU patient urine assessed as resistant isolates by broth microdilution method in presence of beta-lactamase inhibitor Tazobactam
Enterococcus sp. [16] = experiment: Antimicrobial activity against vancomycin-resistant Enterococcus sp. isolated from ICU patient blood assessed as resistant isolates by broth microdilution method in presence of beta-lactamase inhibitor Tazobactam
Pseudomonas aeruginosa [17] = experiment: Antimicrobial activity against carbapenem-resistant Pseudomonas aeruginosa isolated from ICU patient respiratory tract assessed as resistant isolates by broth microdilution method in presence of beta-lactamase inhibitor Tazobactam
Enterococcus sp. [18] = experiment: Antimicrobial activity against vancomycin-resistant Enterococcus sp. isolated from ICU patient wound assessed as resistant isolates by broth microdilution method in presence of beta-lactamase inhibitor Tazobactam
[19] = tested on: Staphylococcus epidermidis; experiment: Antimicrobial activity against methicillin-susceptible Staphylococcus epidermidis assessed as resistant isolates by broth microdilution method in presence of beta-lactamase inhibitor Tazobactam
Klebsiella pneumoniae [20] = experiment: Antimicrobial activity against ESBL producing Klebsiella pneumoniae isolated from ICU patient blood assessed as resistant isolates by broth microdilution method in presence of beta-lactamase inhibitor Tazobactam
Escherichia coli [21] = experiment: Antimicrobial activity against CTX-M ESBL producing Escherichia coli isolated from ICU patient urine assessed as resistant isolates by broth microdilution method in presence of beta-lactamase inhibitor Tazobactam
Enterobacter cloacae [22] = experiment: Antimicrobial activity against carbapenem-resistant Enterobacter cloacae isolated from ICU patient respiratory tract assessed as resistant isolates by broth microdilution method in presence of beta-lactamase inhibitor Tazobactam
Staphylococcus aureus [23] = experiment: Antimicrobial activity against methicillin-resistant Staphylococcus aureus isolated from ICU patient respiratory tract assessed as resistant isolates by broth microdilution method in presence of beta-lactamase inhibitor Tazobactam
Haemophilus influenzae [24] = experiment: Antimicrobial activity against Haemophilus influenzae assessed as resistant isolates by broth microdilution method in presence of beta-lactamase inhibitor Tazobactam
Haemophilus influenzae [25] = experiment: Antimicrobial activity against Haemophilus influenzae isolated from ICU patient respiratory tract assessed as resistant isolates by broth microdilution method in presence of beta-lactamase inhibitor Tazobactam
[26] = tested on: Staphylococcus epidermidis; experiment: Antimicrobial activity against methicillin-resistant Staphylococcus epidermidis isolated from ICU patient urine assessed as resistant isolates by broth microdilution method in presence of beta-lactamase inhibitor Tazobactam
[27] = tested on: Staphylococcus epidermidis; experiment: Antimicrobial activity against methicillin-susceptible Staphylococcus epidermidis isolated from ICU patient blood assessed as resistant isolates by broth microdilution method in presence of beta-lactamase inhibitor Tazobactam
Escherichia coli [28] = experiment: Antimicrobial activity against CTX-M ESBL producing Escherichia coli isolated from ICU patient wound assessed as resistant isolates by broth microdilution method in presence of beta-lactamase inhibitor Tazobactam
Enterobacter cloacae [29] = experiment: Antimicrobial activity against carbapenem-resistant Enterobacter cloacae isolated from ICU patient wound assessed as resistant isolates by broth microdilution method in presence of beta-lactamase inhibitor Tazobactam
[30] = tested on: Staphylococcus epidermidis; experiment: Antimicrobial activity against methicillin-resistant Staphylococcus epidermidis isolated from ICU patient blood assessed as resistant isolates by broth microdilution method in presence of beta-lactamase inhibitor Tazobactam
Staphylococcus aureus [31] = experiment: Antimicrobial activity against methicillin-resistant Staphylococcus aureus isolated from ICU patient wound assessed as resistant isolates by broth microdilution method in presence of beta-lactamase inhibitor Tazobactam
[32] = tested on: Staphylococcus epidermidis; experiment: Antimicrobial activity against methicillin-susceptible Staphylococcus epidermidis isolated from ICU patient wound assessed as resistant isolates by broth microdilution method in presence of beta-lactamase inhibitor Tazobactam
Staphylococcus aureus [33] = experiment: Antimicrobial activity against methicillin-susceptible Staphylococcus aureus isolated from ICU patient urine assessed as resistant isolates by broth microdilution method in presence of beta-lactamase inhibitor Tazobactam
[34] = tested on: Staphylococcus epidermidis; experiment: Antimicrobial activity against methicillin-resistant Staphylococcus epidermidis isolated from ICU patient wound assessed as resistant isolates by broth microdilution method in presence of beta-lactamase inhibitor Tazobactam
Enterococcus sp. [35] = experiment: Antimicrobial activity against vancomycin-resistant Enterococcus sp. isolated from ICU patient respiratory tract assessed as resistant isolates by broth microdilution method in presence of beta-lactamase inhibitor Tazobactam
[36] = tested on: Staphylococcus epidermidis; experiment: Antimicrobial activity against methicillin-resistant Staphylococcus epidermidis assessed as resistant isolates by broth microdilution method in presence of beta-lactamase inhibitor Tazobactam
Pseudomonas aeruginosa [37] = experiment: Antimicrobial activity against carbapenem-resistant Pseudomonas aeruginosa isolated from ICU patient wound assessed as resistant isolates by broth microdilution method in presence of beta-lactamase inhibitor Tazobactam
Staphylococcus aureus [38] = experiment: Antimicrobial activity against methicillin-susceptible Staphylococcus aureus isolated from ICU patient blood assessed as resistant isolates by broth microdilution method in presence of beta-lactamase inhibitor Tazobactam
Pseudomonas aeruginosa [39] = experiment: Antimicrobial activity against carbapenem-resistant Pseudomonas aeruginosa assessed as resistant isolates by broth microdilution method in presence of beta-lactamase inhibitor Tazobactam
[40] = tested on: Staphylococcus epidermidis; experiment: Antimicrobial activity against methicillin-susceptible Staphylococcus epidermidis isolated from ICU patient urine assessed as resistant isolates by broth microdilution method in presence of beta-lactamase inhibitor Tazobactam
Staphylococcus aureus [41] = experiment: Antimicrobial activity against methicillin-resistant Staphylococcus aureus isolated from ICU patient blood assessed as resistant isolates by broth microdilution method in presence of beta-lactamase inhibitor Tazobactam
Klebsiella pneumoniae [42] = experiment: Antimicrobial activity against ESBL producing Klebsiella pneumoniae isolated from ICU patient wound assessed as resistant isolates by broth microdilution method in presence of beta-lactamase inhibitor Tazobactam
Staphylococcus aureus [43] = experiment: Antimicrobial activity against methicillin-susceptible Staphylococcus aureus isolated from ICU patient respiratory tract assessed as resistant isolates by broth microdilution method in presence of beta-lactamase inhibitor Tazobactam
Pseudomonas aeruginosa [44] = experiment: Antimicrobial activity against carbapenem-resistant Pseudomonas aeruginosa isolated from ICU patient urine assessed as resistant isolates by broth microdilution method in presence of beta-lactamase inhibitor Tazobactam
[45] = tested on: Staphylococcus epidermidis; experiment: Antimicrobial activity against methicillin-susceptible Staphylococcus epidermidis isolated from ICU patient respiratory tract assessed as resistant isolates by broth microdilution method in presence of beta-lactamase inhibitor Tazobactam
Klebsiella pneumoniae [46] = experiment: Antimicrobial activity against ESBL producing Klebsiella pneumoniae isolated from ICU patient urine assessed as resistant isolates by broth microdilution method in presence of beta-lactamase inhibitor Tazobactam
Klebsiella pneumoniae [47] = experiment: Antimicrobial activity against ESBL producing Klebsiella pneumoniae assessed as resistant isolates by broth microdilution method in presence of beta-lactamase inhibitor Tazobactam
Staphylococcus aureus [48] = experiment: Antimicrobial activity against methicillin-susceptible Staphylococcus aureus assessed as resistant isolates by broth microdilution method in presence of beta-lactamase inhibitor Tazobactam
Escherichia coli [49] = experiment: Antimicrobial activity against CTX-M ESBL producing Escherichia coli isolated from ICU patient respiratory tract assessed as resistant isolates by broth microdilution method in presence of beta-lactamase inhibitor Tazobactam

For `CCN1CCN(C(=O)N[C@@H](C(=O)N[C@@H]2C(=O)N3[C@@H]2SC(C)(C)[C@@H]3C(=O)O)c2ccccc2)C(=O)C1=O` [PIPERACILLIN], the Activity (Escherichia coli [1]) was 6.9%, the Activity (Klebsiella pneumoniae [2]) was 7.3% and the Activity (Enterococcus sp. [3]) was 17.3%. It also gave an Activity (Staphylococcus aureus [4]) of 0%, an Activity (Pseudomonas aeruginosa [5]) of 0% and an Activity (Escherichia coli [6]) of 1.9%. For the same compound, the Activity (Enterobacter cloacae [7]) was 4.9%, the Activity (Staphylococcus aureus [8]) was 100% and the Activity (Enterococcus sp. [9]) was 21.1%. For the same compound, the Activity (Enterococcus sp. [10]) was 0%, the Activity (Staphylococcus aureus [11]) was 100% and the Activity (Haemophilus influenzae [12]) was 0%. For the same compound, the Activity (Haemophilus influenzae [13]) was 0%, the Activity (Enterobacter cloacae [14]) was 4.2% and the Activity (Enterobacter cloacae [15]) was 12.5%. It also gave an Activity (Enterococcus sp. [16]) of 27%, an Activity (Pseudomonas aeruginosa [17]) of 2.5% and an Activity (Enterococcus sp. [18]) of 22.2%. For the same compound, the Activity [19] was 1.2%, the Activity (Klebsiella pneumoniae [20]) was 6.1% and the Activity (Escherichia coli [21]) was 1.1%. The Activity (Enterobacter cloacae [22]) was 4.6%, the Activity (Staphylococcus aureus [23]) was 100% and the Activity (Haemophilus influenzae [24]) was 0.3%. It also gave an Activity (Haemophilus influenzae [25]) of 0.3%, an Activity [26] of 100% and an Activity [27] of 0%. It also gave an Activity (Escherichia coli [28]) of 0%, an Activity (Enterobacter cloacae [29]) of 0% and an Activity [30] of 100%. It also gave an Activity (Staphylococcus aureus [31]) of 100%, an Activity [32] of 4.2% and an Activity (Staphylococcus aureus [33]) of 0%. It also gave an Activity [34] of 100%, an Activity (Enterococcus sp. [35]) of 13.3% and an Activity [36] of 100%. The Activity (Pseudomonas aeruginosa [37]) was 0%, the Activity (Staphylococcus aureus [38]) was 0% and the Activity (Pseudomonas aeruginosa [39]) was 1.3%. For the same compound, the Activity [40] was 0%, the Activity (Staphylococcus aureus [41]) was 100% and the Activity (Klebsiella pneumoniae [42]) was 18.9%. For the same compound, the Activity (Staphylococcus aureus [43]) was 0%, the Activity (Pseudomonas aeruginosa [44]) was 0% and the Activity [45] was 0%. It also gave an Activity (Klebsiella pneumoniae [46]) of 13.3%, an Activity (Klebsiella pneumoniae [47]) of 9.3% and an Activity (Staphylococcus aureus [48]) of 0%. For the same compound, the Activity (Escherichia coli [49]) was 1.6%.

Source: ChEMBL document CHEMBL1275409, “Antimicrobial-resistant pathogens in intensive care units in Canada: results of the Canadian National Intensive Care Unit (CAN-ICU) study, 2005-2006” (2008)
